Test results: patent US10905680B2, “Methods of treatment for cholestatic and fibrotic diseases” (Genfit, priority 2016, dated 2021)

What was measured:
[1] = tested on: Normal Human Cardiac Fibroblasts (ventricle) (NHCF-V); experiment: TGFβ1-induced expression of α-SMA protein in human cardiac fibroblasts (ELISA); format: cell-based; details: concentration of 1 μM; TGFβ1 3 ng/ml, 48 hours
Experimental: NTZ (A) or TZ (B) were added to serum-deprived cardiac fibroblasts (NHCF) 1 hour before the activation with TGFβ1 (3 ng/ml). After 48 hours of incubation, the expression of α-SMA was measured by ELISA. The obtained values were transformed into percentage inhibition over TGFβ1 control. Data are presented as mean (triplicates)±standard deviation (SD). Statistical analyses were performed by one-way ANOVA followed by Bonferroni post-hoc tests, using Sigma Plot 11.0 software. [*: p<0.05; **: p<0.01; ***: p<0.001 (comparison versus TGFβ1 3 ng/mL group)].
The Normal Human Cardiac Fibroblasts (ventricle) (NHCF-V) (Lonza) were isolated from normal adult heart tissue. Cells were cultured in Fibroblast Basal Medium (FBM) (Lonza cat # CC-3131) that was supplemented with FGM™-3 BulletKit™ kit (Lonza cat # CC-4525). The complete medium contains 10% fetal bovine serum. For the activation experiments with TGFβ1, the NHCF-V were plated at a density of 6×10^3 cells per well in 96-well plates. The next day, cell-culture medium was removed, and cells were washed with PBS (Invitrogen cat #14190). NHCF were deprived for 24 hours in serum-free, insulin-free and rhFGF-B-free medium. […]
The level of α-SMA was measured using a Sandwich ELISA. […]

[2] = tested on: human renal interstitial fibroblasts (HRIF); experiment: TGFβ1-induced expression of α-SMA protein in human renal fibroblasts (ELISA); format: cell-based; details: TGFβ1 3 ng/ml, 48 hours
Experimental: Serum-deprived Human Renal Interstitial Fibroblasts (HRIF) were preincubated for 1 hour with NTZ (A) or TZ (B) before the activation with the profibrogenic cytokine TGFβ1 (3 ng/ml). After 48 hours of incubation, the expression of α-SMA was measured by ELISA. The obtained values were normalized over TGFβ1 control. Data are presented as mean (quadruplicates)±SEM (Standard Error of Mean). […] For the activation experiments with TGFβ1, the HRIF were plated at a density of 6.5×10^3 cells per well in 384-well plates. The next day, cell culture medium was removed, and cells were washed with PBS (Invitrogen cat #14190). HRIF were deprived for 24 hours in serum-free, and FGS-free medium. For the treatments with NTZ or TZ, the serum-deprived HRIF were preincubated for 1 hour with the compounds followed by addition of the profibrogenic stimuli TGFβ1 (PeproTech cat #100-21, 3 ng/mL) in serum-free, -FGS-free medium for an additional 48 hour period. Finally, the cells were washed with PBS (Invitrogen, cat #14190) before the addition of 30 μl of lysis buffer (CelLytic™ MT reagent; Sigma #C3228). Plates were then incubated for 30 min on ice using a plate shaker, and subsequently stored at −20° C. The level of α-SMA was measured using a Sandwich ELISA. Briefly, the wells of an ELISA plate were first coated with the capture antibody (mouse monoclonal anti-ACTA2, Abnova) at 4° C. overnight. […]

## O=C(Nc1ncc([N+](=O)[O-])s1)c1ccccc1O [TZ, 2-hydroxy-N-(5-nitro-2-thiazolyl)benzamide]
[1]
  antifibrotic effects (α-SMA) in normal human cardiac fibroblasts: significant antifibrotic effects
[2]
  antifibrotic effects (α-SMA) in TGFβ-activated human renal interstitial fibroblasts: significant and dose-dependent antifibrotic effects
